# What was measured:
# [1] = tested on: HeLa S3 human epithelioid cervical carcinoma cells; experiment: Cellular uptake of fluorescein-labeled dendrimers quantified by flow cytometry (FACS); assay type: cell-based; details: for delivery to HeLa S3 cells (in words): 250 nM to 50 μM; for Percentage of Cellular Uptake: 4 hours, 37° C., average of two experiments; for saturation of uptake reached with increasing concentration: concentration increased up to 50 μM
# Protocol: HeLa S3, human epithelioid cervical carcinoma cells of approximately 50% confluency were treated with concentrations varying from 250 nM to 50 μM of each of the molecular transporters 10, 11, 12, 13, and 41 at 37° C. The molecular transporters were directly added to the media (Dulbecco's modified eagle medium containing 10% fetal bovine serum and 1× antibiotic-antimycotic), and the delivery to the cells was visualized by microscopy.
# Quantification of the uptake of the molecular transporter into the cells was performed by flow cytometry 4 hours after treatment. Adherent cells, grown on 6 well plates, were displaced with trypsin, after which the cells were washed with phosphate-buffered saline (PBS). The final cell pellet was collected by centrifugation and resuspended in PBS to a concentration of approximately 1×10^6 cells/mL. A minimum of 20,000 cell events were counted and analyzed using the FACSCalibur and CellQuest brand software (BD Biosciences, San Jose, Calif.).
# HeLa S3 cells = experiment: Sulphorhodamine B (SRB) cytotoxicity assay; assay type: cell-based, human; details: 4 hour treatment, concentrations up to 50 μM
# Protocol: The cells were treated with varying concentrations (250 nM to 50 μM) of compound 12 for 4 hours at 37° C. The cells were fixed with trichloroacetic acid and were then subsequently stained with SRB dye. The cells were washed with water, and the SRB-bound complexes were solubilized in Tris buffer. The absorbance at 572 nm was measured in each sample.
# [2] = Solubility in H2O noted on isolation; assay type: physicochemical; details: isolated salt
Structure (SMILES),delivery to HeLa S3 cells (in words) [1],Percentage of Cellular Uptake ([1]; 250 nM),Percentage of Cellular Uptake ([1]; 500 nM),Percentage of Cellular Uptake ([1]; 1 μM),Percentage of Cellular Uptake ([1]; 5 μM),Percentage of Cellular Uptake ([1]; 10 μM),Percentage of Cellular Uptake ([1]; 25 μM),Percentage of Cellular Uptake ([1]; 50 μM),saturation of uptake reached with increasing concentration [1],cytotoxic effect / cell lysis (HeLa S3 cells),solubility in H2O [2]
Cl.Cl.Cl.Cl.Cl.Cl.N=C(N)NCCNC(=O)CCOCC(COCCC(=O)NCCNC(=N)N)(COCCC(=O)NCCNC(=N)N)NC(=O)CCNC(=O)c1cc(C(=O)NCCNC(=O)CCNC(=S)Nc2ccc(-c3c4ccc(=O)cc-4oc4cc(O)ccc34)c(C(=O)O)c2)cc(C(=O)NCCC(=O)NC(COCCC(=O)NCCNC(=N)N)(COCCC(=O)NCCNC(=N)N)COCCC(=O)NCCNC(=N)N)c1 (stereo not shown) [Compound 11],excellent delivery,4.56%,7.52%,11.74%,94.54%,98.55%,99.79%,99.87%,approximately 100%,,
Cl.Cl.Cl.N=C(N)NCCNC(=O)CCOCC(COCCC(=O)NCCNC(=N)N)(COCCC(=O)NCCNC(=N)N)NC(=O)CCNC(=S)Nc1ccc(-c2c3ccc(=O)cc-3oc3cc(O)ccc23)c(C(=O)O)c1 (stereo not shown) [Compound 10],,,,,,,,,approximately 100%,,
Cl.Cl.Cl.Cl.Cl.Cl.Cl.Cl.Cl.N=C(N)NCCNC(=O)CCOCC(COCCC(=O)NCCNC(=N)N)(COCCC(=O)NCCNC(=N)N)NC(=O)CCNC(=O)CCOCC(COCCC(=O)NCCC(=O)NC(COCCC(=O)NCCNC(=N)N)(COCCC(=O)NCCNC(=N)N)COCCC(=O)NCCNC(=N)N)(COCCC(=O)NCCC(=O)NC(COCCC(=O)NCCNC(=N)N)(COCCC(=O)NCCNC(=N)N)COCCC(=O)NCCNC(=N)N)NC(=O)CCNC(=S)Nc1ccc(-c2c3ccc(=O)cc-3oc3cc(O)ccc23)c(C(=O)O)c1 (stereo not shown) [Compound 12],excellent delivery,9.07%,8.71%,9.17%,63.52%,91.74%,98.61%,99.75%,approximately 100%,no cytotoxic effect and did not cause cell lysis,
Cl.Cl.Cl.Cl.Cl.Cl.Cl.Cl.Cl.Cl.Cl.Cl.N=C(N)NCCNC(=O)CCOCC(COCCC(=O)NCCNC(=N)N)(COCCC(=O)NCCNC(=N)N)NC(=O)CCNC(=O)CCOCC(COCCC(=O)NCCC(=O)NC(COCCC(=O)NCCNC(=N)N)(COCCC(=O)NCCNC(=N)N)COCCC(=O)NCCNC(=N)N)NC(=O)CCNC(=O)CCOCC(COCCC(=O)NCCC(=O)NC(COCCC(=O)NCCC(=O)NC(COCCC(=O)NCCNC(=N)N)(COCCC(=O)NCCNC(=N)N)COCCC(=O)NCCNC(=N)N)COCCC(=O)NCCC(=O)NC(COCCC(=O)NCCNC(=N)N)(COCCC(=O)NCCNC(=N)N)COCCC(=O)NCCNC(=N)N)NC(=O)CCNC(=S)Nc1ccc(-c2c3ccc(=O)cc-3oc3cc(O)ccc23)c(C(=O)O)c1 (stereo not shown) [Compound 13],excellent delivery,3.22%,6.59%,11.91%,90.79%,96.77%,99.11%,99.82%,approximately 100%,,barely soluble in H2O
"N=C(N)NCCNC(=O)CCCCCNC(=O)CCNC(=S)Nc1ccc(-c2c3ccc(=O)cc-3oc3cc(O)ccc23)c(C(=O)O)c1 [Compound 41, 5-(3-{2-[5-(2-Guanidinoethylcarbamoyl)-pentylcarbamoyl]-ethyl}-thioureido)-2-(6-hydroxy-3-oxo-3H-xanthen-9-yl)-benzoic acid]",,,,,,,,,approximately 100%,,
